Assay results taken from patent US6329344A, “Derivatives of monosaccharides as cell adhesion inhibitors” (Ranbaxy Laboratories Limited, priority 1998, dated 2001).
Read-outs that look alike come from different tables or passages of the source.

Test system: murine contact hypersensitivity response
Assay: Mouse Ear Swelling Test (MEST), DNFB contact hypersensitivity
Type: in vivo, Swiss albino mice
Conditions: ear thickness 24 hours after challenge; for ED30 / ED40: Mus musculus, 24 h; for ED30: read-out: EC30 (ED30, dose for 30% inhibition of ear swelling); for ED40: read-out: EC40 (ED40, dose for 40% inhibition of ear swelling)
Description: The in vitro cell adhesion assay was used to measure the effect of a test compound on adhesion of human T cell line (Jurkat J6) on surfaces coated with VCAM-1. The MEST assesses the ability of the experimental compounds to inhibit the delayed-type hypersensitivity response of sensitized mice against a potent allergen, 1,4-Dinitrofluoro benzene. These two assays are appropriate for screening compounds for two different activities. The cell adhesion assay determines the effect of compounds on the interaction of VLA4 molecules expressed on the surface of Jurkat cells with its counter-receptor, VCAM-1, immobilized on microtitre plate surface. Conversely, the MEST determines the potency of compounds to inhibit the murine contact hypersensitivity response induced by exposing mice to the potent allergen 1,4-Dinitrofluoro benzene. The Chisolm et al method was used in this respect (Chisolm et al, Eur. J. Immunology 1993;23:682).
We tested the efficacy of compounds synthesized in this invention to inhibit the act hypersensitivity in Swiss mice as follows:
20 to 25 gm female Swiss albino mice (animals procured from National Institute of Immunology, New Delhi, India and maintained in our Experimental Animal Facility) were anesthetized with anesthetic ether (Sisco Research Laboratories Ltd., India). A 2 cm^2 patch of dorsal skin was shaved using a hair clipper. The exposed skin was then dermabraded using No. 100 sandpaper gently. 25 μL freshly prepared 0.5% 1,4-Dinitrofluoro benzene in 4:1 (v/v) acetone:olive oil solution was then topically applied onto the dermabraded skin to encourage a mild inflammation reaction. Twenty-four hours after the initial sensitization, the mice were again sensitized with 25 μL freshly prepared 0.5% 1,4-Dinitrofluor benzene (DNFB) in 4:1 (v/v) acetone:olive oil solution on the same dermabraded site as before. The second sensitization was performed while restraining the non-anesthetized, conscious mouse.
2. Administration of Compound
On day 5, compounds were dissolved in an aqueous solvent (pyrogen-free water, alkaline water, or ethanol) and further diluted in pyrogen-free water to prepare appropriate doses. Solutions were administered by intravenous, subcutaneous or oral route.
3. Challenge and Measurement of Ear Thickness
Two hours following administration of the compounds, the animals were physically restrained and painted with 25 μL of freshly prepared 0.5% DNFB in 4:1 (v/v) acetone:olive oil solution on the right ear. The thickness of the right ear was measured using a Series 300 Odimeter (Dyer Gauge Inc, USA) at the time of challenge (0 hr), 4 hours and 24 hours after challenge while physically restraining the non-anesthetized mice. In a separate experiment, it was ascertained that 4:1 (v/v) acetone:olive oil vehicle has no effect on ear thickness.
4. Determination of Effective Concentration of the Compounds
Inhibition of the ear swelling was judged by comparison of treated groups with their negative control groups. Percent inhibition was calculated as: [formula]
STEST =Mean ear thickness in test group at 24 hours after challenge
STEST-zero =Mean ear thickness in test group at zero hours after challenge
SNC =Mean ear thickness in negative control group at 24 hours after challenge
SNC-zero =Mean ear thickness in negative control group at zero hours after challenge
The percentage inhibition of swelling obtained by the above calculation was plotted against log dose using the Graph Pad Prizm software and, from this plot, the log dose corresponding to 30% inhibition (log ED30) and 40% (log ED40) inhibition was determined.
Aqueous solutions of appropriate doses (1 μg/kg to 100 mg/kg) were administered by intravenous route 2 hrs before challenge and their effect on ear thickness was measured. Concentrations inhibiting ear swelling by 30% and 40% were determined and expressed as amount (ng, μg or mg) per Kg body weight.

[1] = I.V., amount per Kg body weight
[2] = S.C., amount per Kg body weight

Structure (SMILES) | ED30 [1] | ED40 [1] | ED30 (Oral) | ED30 [2] | ED40 [2] | ED40 (Oral) | EC30 (ED30, dose for 30% inhibition of ear swelling) [1]
CCCCCCCCCCCCO[C@@H]1[C@H]2OC(C)(C)O[C@H]2O[C@@H]1CNC(=O)Nc1ccc(CC(=O)O)cc1 [Compound 53, 1,2-O-isopropylidene-3-O-dodecyl-5-deoxy-5-N-{[4-(2-hydroxy-2-oxoethyl)phenyl]aminocarbonylamino}-α,D-xylofuranose] | 0.01 mg/kg | 0.07 mg/kg | 0.001 mg/kg | 0.0005 mg/kg | 0.01 mg/kg |  | 
CCCCCCCCCCCCO[C@H]1[C@H]2OC(C)(C)O[C@H]2O[C@@H]1CNC(=O)Nc1ccc(CC(=O)O)cc1 [Compound 76, 1,2-O-isopropylidene-3-O-dodecyl-5-deoxy-5-N-{[4-(2-hydroxy-2-oxoethyl)phenyl]aminocarbonylamino}-α,D-ribofuranose] |  |  | 0.00029 mg/kg |  |  | 0.0813 mg/kg | 
CC(C)C[C@H](NC(=O)[C@@]12O[C@H]3COC(C)(C)O[C@H]3[C@@H]1OC(C)(C)O2)C(=O)N[C@@H](CC(=O)O)C(=O)N[C@H](C(=O)N1CCC[C@H]1C(=O)O)C(C)C [Compound 122, 2,3; 4,6-Di-O-isopropylidene-1-carbonyl-L-Leucyl-α,L-Aspartyl-L-Valyl-LProline-α,L-xylo-2-hexulofuranosonic acid] | 12 mg/kg |  |  |  |  |  | 8 mg/kg
